Where a name gives a salt, the structure may show the parent alone.
Columns and labels:
Erk2 = Erk2 (Homo sapiens, UniProt P28482); assay: Erk2 alpha kinase assay (cell-free, ALPHA technology); assay type: biochemical; conditions: 10 μM ATP
Procedure: The inhibitory effect of the compounds according to the invention was tested on various serine/threonine, tyrosine and lipid kinases in enzymatic assays. Recombinant human kinases such as, for example, Erk2, were used in this case, partly as full-length kinases, partly as shortened fragments, but at least consisting of the functional kinase domains. The commercial kinase proteins (Proqinase, Upstate) were used as recombinant fusion proteins with GST (glutathion-S-transferase) or His-Tag. Depending on the type of substrate, the various kinase reactions were quantified by means of suitable ALPHA™ beads (Perkin-Elmer). The substance testing is described in detail hereinafter for the Erk assay. […] a) MAPK-ALPHAs (e.g. […] The fluorescence was detected the following morning in a Envision plate reader (Perkin-Elmer). The %-inhibition values per substance concentration were calculated by means of the following formula from the raw data determined in the Envision plate reader[…]: Eight determinations were made for each control and two for the substance samples. […] The IC50 values were determined using GraphPadPrism.

Hct116 = assay: XTT assay for anti-proliferative effect; assay type: cell-based; conditions: Homo sapiens, HCT-116; Hct116 tumour cell line, ~48 h incubation
Procedure: The principle of this test is based on the intracellular reduction of the tetrazolium dye XTT (sodium 3′-[1-(phenylaminocarbonyl)-3,4-tetrazolium]-bis(4-methoxy-6-nitro)benzene sulfonic acid, Sigma) to a formazan dye by mitochondrial dehydrogenases. The dye is only formed by metabolically active cells and its photometrically measurable intensity is a quantitative indicator for the presence of living cells. The reduction of dye formation by incubation of the cells with substances serves as a parameter for the anti-proliferative effect.
The tumour cell lines (ATCC) were injected into 96-well microtitre plates in a defined cell number (1250 cells/well for Hct116) and then incubated overnight in an incubator at 37° C., 5% CO2 and 95% air humidity. The test substances were prepared as stock solutions (10 mM) in DMSO. To determine the EC50 values the potential inhibitor substances were added to the cells in half-logarithmically graded dilutions, resulting in final concentrations of 1.58 nM-50 μM. The cell plates were then incubated for ˜48 h in an incubator at 37° C., 5% CO2 and 95% air humidity.
For the detection reaction the substrate XTT was mixed with PMS (N-Methyl dibenzopyrazine methylsulfate, Sigma) and added to the cells so that a final concentration of 325 μg XTT/ml and 2.5 μg PMS/ml was obtained. It was then incubated for 3 h at 37° C., 95% air humidity. The formazan salt formed by the cellular dehydrogenases could then be quantified by adsorption at 490 nm.
The % inhibition value was evaluated by means of the following formula from the values for the optical densities measured in each case at 490 nm:
Eight determinations were made for each control and two for the substance samples. The 0% control contains no cells, the 100% control (proliferation control) contains no test substance. The EC50 values were determined using GraphPadPrism.

Erk2, sequence (P28482 2-360 limits assumed): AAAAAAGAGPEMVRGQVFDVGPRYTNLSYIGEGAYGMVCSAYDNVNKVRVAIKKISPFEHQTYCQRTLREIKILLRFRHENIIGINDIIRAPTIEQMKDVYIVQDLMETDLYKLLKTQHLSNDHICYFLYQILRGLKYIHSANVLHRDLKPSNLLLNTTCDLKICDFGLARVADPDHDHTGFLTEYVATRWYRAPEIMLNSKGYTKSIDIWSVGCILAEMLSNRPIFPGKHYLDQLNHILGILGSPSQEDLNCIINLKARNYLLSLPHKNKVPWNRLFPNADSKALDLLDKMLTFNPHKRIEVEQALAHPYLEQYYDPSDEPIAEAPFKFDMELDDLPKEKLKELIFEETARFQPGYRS

| IC50 (Erk2) | melting point | EC50 (Hct116) | Compound |
| --- | --- | --- | --- |
| 4 nM | 207 to 208 °C | – | CCn1cc(-c2cnc3ccc(NC(=O)NCCCCc4ccccc4)nc3n2)cn1 [Compound 108, 1-[3-(1-Ethyl-1H-pyrazol-4-yl)-pyrido[2,3-b]pyrazin-6-yl]-3-(4-phenyl-butyl)-urea] |
| 4 nM | 198 to 201 °C | 337 nM | Cn1cc(-c2cnc3ccc(NC(=O)NCCCCc4ccccc4)nc3n2)cn1 [Compound 155, 1-[3-(1-Methyl-1H-pyrazol-4-yl)-pyrido[2,3-b]pyrazin-6-yl]-3-(4-phenyl-butyl)-urea] |
| 1 nM | 168 to 170 °C | – | COc1cc(CO)ccc1-c1cnc2ccc(NC(=O)N[C@H](C)CCCc3ccccc3)nc2n1 [Compound 156, 1-[3-(4-Hydroxymethyl-2-methoxy-phenyl)-pyrido[2,3-b]pyrazin-6-yl]-3-((R)-1-methyl-4-phenyl-butyl)-urea] |
| 2 nM | 223 to 226 °C | – | C[C@H](CCCc1ccccc1)NC(=O)Nc1ccc2ncc(-c3ccncc3)nc2n1 [Compound 157, 1-((R)-1-Methyl-4-phenyl-butyl)-3-(3-pyridin-4-yl-pyrido[2,3-b]pyrazin-6-yl)-urea] |
| 1 nM | 168 to 170 °C | – | COc1c(CO)cccc1-c1cnc2ccc(NC(=O)N[C@H](C)CCCc3ccccc3)nc2n1 [Compound 158, 1-[3-(3-Hydroxymethyl-2-methoxy-phenyl)-pyrido[2,3-b]pyrazin-6-yl]-3-((R)-1-methyl-4-phenyl-butyl)-urea] |
| 1 nM | 231 to 232 °C | 844 nM | O=C(NCCCCc1ccccc1)Nc1ccc2ncc(-c3cn[nH]c3)nc2n1 [Compound 159, 1-(4-Phenyl-butyl)-3-[3-(1H-pyrazol-4-yl)-pyrido[2,3-b]pyrazin-6-yl]-urea] |
| 1 nM | 233 to 235 °C | 420 nM | O=C(NCCCCc1ccccc1)Nc1ccc2ncc(-c3ccc(O)cc3)nc2n1 [Compound 160, 1-[3-(4-Hydroxy-phenyl)-pyrido[2,3-b]pyrazin-6-yl]-3-(4-phenyl-butyl)-urea] |
| 2 nM | 161 to 163 °C | – | COc1ncccc1-c1cnc2ccc(NC(=O)N[C@H](C)CCCc3ccccc3)nc2n1 [Compound 161, 1-[3-(2-Methoxy-pyridin-3-yl)-pyrido[2,3-b]pyrazin-6-yl]-3-((R)-1-methyl-4-phenyl-butyl)-urea] |
| 2 nM | 204 to 208 °C | 557 nM | CC(CCCc1ccccc1)NC(=O)Nc1ccc2ncc(-c3cnn(C)c3)nc2n1 (stereo not drawn) [Compound 164, 1-(1-Methyl-4-phenyl-butyl)-3-[3-(1-methyl-1H-pyrazol-4-yl)-pyrido[2,3-b]pyrazin-6-yl]-urea] |
| 3 nM | 201 to 203 °C | – | C[C@H](CCCc1ccccc1)NC(=O)Nc1ccc2ncc(N3CCOCC3)nc2n1 [Compound 166, 1-((R)-1-Methyl-4-phenyl-butyl)-3-(3-morpholin-4-yl-pyrido[2,3-b]pyrazin-6-yl)-urea] |
| 3 nM | 187 to 190 °C | – | C[C@H](CCCc1ccccc1)NC(=O)Nc1ccc2ncc(-c3ccc(CO)cc3)nc2n1 [Compound 167, 1-[3-(4-Hydroxymethyl-phenyl)-pyrido[2,3-b]pyrazin-6-yl]-3-((R)-1-methyl-4-phenyl-butyl)-urea] |
| 3 nM | – | 903 nM | C[C@H](CCCc1ccccc1)NC(=O)Nc1ccc2ncc(-c3cnn(CCN4CCOCC4)c3)nc2n1 [Compound 168, 1-((R)-1-Methyl-4-phenyl-butyl)-3-{3-[1-(2-morpholin-4-yl-ethyl)-1H-pyrazol-4-yl]-pyrido[2,3-b]pyrazin-6-yl}-urea] |
| 4 nM | 274 to 276 °C | – | C[C@H](CCCc1ccccc1)NC(=O)Nc1ccc2ncc(-c3cn[nH]c3)nc2n1 [Compound 171, 1-((R)-1-Methyl-4-phenyl-butyl)-3-[3-(1H-pyrazol-4-yl)-pyrido[2,3-b]pyrazin-6-yl]-urea] |
| 5 nM | 204 to 206 °C | – | O=C(NCCCCc1ccccc1)Nc1ccc2ncc(N3CCCC3)nc2n1 [Compound 172, 1-(4-Phenyl-butyl)-3-(3-pyrrolidin-1-yl-pyrido[2,3-b]pyrazin-6-yl)-urea] |
| 5 nM | 187 to 190 °C | – | C[C@H](CCCc1ccccc1)NC(=O)Nc1ccc2ncc(N3CCCC3)nc2n1 [Compound 173, 1-((R)-1-Methyl-4-phenyl-butyl)-3-(3-pyrrolidin-1-yl-pyrido[2,3-b]pyrazin-6-yl)-urea] |
| 6 nM | 200 to 202 °C | – | O=C(NCCCCc1ccccc1)Nc1ccc2ncc(N3CCOCC3)nc2n1 [Compound 176, 1-(3-Morpholin-4-yl-pyrido[2,3-b]pyrazin-6-yl)-3-(4-phenyl-butyl)-urea] |
| 6 nM | 266 to 269 °C | – | Cc1n[nH]c(C)c1-c1cnc2ccc(NC(=O)N[C@H](C)CCCc3ccccc3)nc2n1 [Compound 177, 1-[3-(3,5-Dimethyl-1H-pyrazol-4-yl)-pyrido[2,3-b]pyrazin-6-yl]-3-((R)-1-methyl-4-phenyl-butyl)-urea] |
| 6 nM | 210 to 211 °C | – | COc1ccc(-c2cnc3ccc(NC(=O)NCCCCc4ccccc4)nc3n2)cc1OC [Compound 178, 1-[3-(3,4-Dimethoxy-phenyl)-pyrido[2,3-b]pyrazin-6-yl]-3-(4-phenyl-butyl)-urea] |
| 6 nM | 137 to 138 °C | – | COc1ccccc1-c1cnc2ccc(NC(=O)N[C@H](C)CCCc3ccccc3)nc2n1 [Compound 179, 1-[3-(2-Methoxy-phenyl)-pyrido[2,3-b]pyrazin-6-yl]-3-((R)-1-methyl-4-phenyl-butyl)-urea] |
| 6 nM | – | – | C[C@H](CCCc1ccccc1)NC(=O)Nc1ccc2ncc(-c3cccc(CO)c3)nc2n1 [Compound 181, 1-[3-(3-Hydroxymethyl-phenyl)-pyrido[2,3-b]pyrazin-6-yl]-3-((R)-1-methyl-4-phenyl-butyl)-urea] |
| 4 nM | – | – | O=C(NCCCCc1ccccc1)Nc1ccc2ncc(-c3cnn(CCO)c3)nc2n1 [Compound 189, 1-{3-[1-(2-Hydroxy-ethyl)-1H-pyrazol-4-yl]-pyrido[2,3-b]pyrazin-6-yl}-3-(4-phenyl-butyl)-urea] |
| 1 nM | – | – | COc1cc(-c2cnc3ccc(NC(=O)NCCCCc4ccccc4)nc3n2)ccc1C(=O)O [Compound 194, 2-Methoxy-4-{6-[3-(4-phenyl-butyl)-ureido]-pyrido[2,3-b]pyrazin-3-yl}-benzoic acid] |
| 4 nM | 261 °C (dec.) | – | C[C@H](CCCc1ccccc1)NC(=O)Nc1ccc2ncc(-c3cccc(C(=O)O)c3)nc2n1 [Compound 196, 3-{6-[3-((R)-1-Methyl-4-phenyl-butyl)-ureido]-pyrido[2,3-b]pyrazin-3-yl}-benzoic acid] |
| 5 nM | 230 to 232 °C | – | N[C@@H](Cc1ccc(-c2cnc3ccc(NC(=O)NCCCCc4ccccc4)nc3n2)cc1)C(=O)O [Compound 197, (S)-2-Amino-3-(4-{6-[3-(4-phenyl-butyl)-ureido]-pyrido[2,3-b]pyrazin-3-yl}-phenyl)-propionic acid] |
| 3 nM | 254 to 256 °C | – | O=C(NCCCCc1ccccc1)Nc1ccc2ncc(-c3cccc(C(=O)O)c3)nc2n1 [Compound 198, 3-{6-[3-(4-Phenyl-butyl)-ureido]-pyrido[2,3-b]pyrazin-3-yl}-benzoic acid] |
| 41 nM | – | – | O=C(NCCCCc1ccccc1)Nc1ccc2ncc(-c3ccc(OCCN4CCOCC4)cc3)nc2n1 [Compound 202, 1-{3-[4-(2-Morpholin-4-yl-ethoxy)-phenyl]-pyrido[2,3-b]pyrazin-6-yl}-3-(4-phenyl-butyl)-urea] |
| 24 nM | – | – | COCc1cccc(-c2cnc3ccc(NC(=O)N[C@H](C)CCCc4ccccc4)nc3n2)c1 [Compound 203, 1-[3-(3-Methoxymethyl-phenyl)-pyrido[2,3-b]pyrazin-6-yl]-3-((R)-1-methyl-4-phenyl-butyl)-urea] |

| Compound | IC50 (Erk2) | melting point | EC50 (Hct116) |
| --- | --- | --- | --- |
| C[C@H](CCCc1ccccc1)NC(=O)Nc1ccc2ncc(-c3ccc(C[C@H](N)C(=O)O)cc3)nc2n1 [Compound 195, (S)-2-Amino-3-(4-{6-[3-((R)-1-methyl-4-phenyl-butyl)-ureido]-pyrido[2,3-b]pyrazin-3-yl}-phenyl)-propionic acid; hydrochloride] | 1 nM | – | – |

— patent US8791118B2, “Pyridopyrazines as highly selective ras-Raf-Mek-Erk signal transduction pathway inhibitors” (Aeterna Zentaris GmbH, priority 2011, dated 2014)
